Like-named read-outs stand apart in the source and are kept apart here.
Legend:
[1] = antagonism to adrenaline-induced toxicity; format: in vivo, male albino Swiss mice; conditions: mouse, in vivo, ip; adrenaline (tartrate) intraperitoneally, mice; mortality 36 hours; read-out: LD50 (fiducial limits for 95%) of adrenaline alone
Experimental: (§1) The antagonism to adrenaline-induced toxicity was also investigated with the following results. Groups of ten male albino Swiss mice were injected with adrenaline (tartrate) intraperitoneally at progressive logarithmic doses. Other similar groups of animals were injected with 250 mg/kg of the compounds under examination via the same route, 30 minutes before adrenaline administration. Mortality was assessed by means of the Litchfield and Wilcoxon method 36 hours after adrenaline administration.

mice = assay: in vivo; conditions: for tolerance: LD50 intravenously in mice, compared with d,l-carnitine
From the text: (§2) The tolerance of acetyl-d,l-carnitine and of the other aforementioned acyl derivatives of the formula (I), as well as their salts were investigated by comparing the LD50 obtained by administering the compounds intravenously in mice with the LD50 obtained under the same experimental conditions by intravenous injection of d,l-carnitine.

isolated rabbit hearts [2] = assay: cardiokinetic effect on isolated heart (Langendorff): contractile force after anoxia, positive inotropic effect; conditions: for Contractile force, Mean ± S.E.: 10 minutes from interruption of anoxic period
In short: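 Rabbit hearts were perfused Langendorff-style with oxygenated Ringer at 38.2 °C. Anoxia was applied until contractile force dropped by 80%, then the hearts were reoxygenated with or without compound. Contractile force was expressed as a percentage 10 min after the anoxic period ended.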

isolated rabbit hearts [3] = assay: coronary vasodilator effect: coronary flow, isolated heart (Langendorff)
In short: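 Langendorff-perfused isolated rabbit hearts in oxygenated Ringer at 38.2° C; anoxia imposed until contractile force fell by 80%, then reoxygenated with or without test compound. Coronary flow, isometric contraction and ECG recorded by polygraph.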

isolated rat atrium = assay: antiarrhythmic effect, isolated rat atrium method of M. Libonati and G. Segre; conditions: for Mean percent variation versus controls: excitability (-%) / Mean percent variation versus controls: frequency max (-%) / inhibition at 0.1 µg/mL / inhibition at 0.01 µg/mL / inhibition at 0.001 µg/mL: decrease; for Mean percent variation versus controls: refractory period (+%) / Mean percent variation versus controls: rheobase (+%) / activation at 0.1 µg/mL / activation at 0.01 µg/mL / activation at 0.001 µg/mL: increase; for inhibition at 0.1 µg/mL / activation at 0.1 µg/mL / inhibition at 0.01 µg/mL / activation at 0.01 µg/mL / inhibition at 0.001 µg/mL / activation at 0.001 µg/mL: Rattus norvegicus
female rats = assay: antifatigue effect: rota-rod; format: in vivo, rat; conditions: for responders at 300 mg/kg / responders at 400 mg/kg / responders at 600 mg/kg: Rattus norvegicus, ip, 0.25 h, read-out: percentage of animals staying on the rota-rod more than 180 seconds
In short: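 Female rats dosed intraperitoneally in saline, with controls given saline alone. Every 15 min after treatment animals were placed on a 6 cm rod rotating at 16 r.p.m. Value is the percentage of animals staying on the rod for more than 180 s, per session.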

[4] = test system: adrenaline-induced toxicity; assay: antagonism to adrenaline-induced toxicity; format: in vivo, male albino Swiss mice
Experimental: as §1

in vivo = conditions: mouse, in vivo, iv
From the text: as §2

[5] = 300 mg/kg i.p., session 1 (every 15 minutes)
[6] = 300 mg/kg i.p., session 2 (every 15 minutes)
[7] = 300 mg/kg i.p., session 4 (every 15 minutes)
[8] = 300 mg/kg i.p., session 5 (every 15 minutes)
[9] = 300 mg/kg i.p., session 6 (every 15 minutes)
[10] = 400 mg/kg i.p., session 1 (every 15 minutes)
[11] = 400 mg/kg i.p., session 2 (every 15 minutes)
[12] = 400 mg/kg i.p., session 3 (every 15 minutes)
[13] = 400 mg/kg i.p., session 4 (every 15 minutes)
[14] = 400 mg/kg i.p., session 5 (every 15 minutes)
[15] = 400 mg/kg i.p., session 6 (every 15 minutes), * p < 0.05
[16] = 600 mg/kg i.p., session 1 (every 15 minutes)
[17] = 600 mg/kg i.p., session 2 (every 15 minutes)
[18] = 600 mg/kg i.p., session 3 (every 15 minutes)
[19] = 600 mg/kg i.p., session 4 (every 15 minutes)
[20] = 600 mg/kg i.p., session 5 (every 15 minutes)
[21] = 600 mg/kg i.p., session 6 (every 15 minutes), * p < 0.05

CNCC(O)c1ccc(O)c(O)c1 (centres unmarked) [Adrenaline, reference compound]
LD50 at 36 h [1]: 27.7 mg/kg

CC(O)CC(=O)OC(CC(=O)[O-])C[N+](C)(C)C (centres unmarked)
tolerance (mice): better tolerance properties | Approx. LD50 (mice; intravenously in mice, compounds used as hydrochloryde forms): ~745 mg/kg | Contractile force, Mean ± S.E. (isolated rabbit hearts [2]; 1·10^-5 g/lt): 54.3 ± 6.18% | Contractile force, Mean ± S.E. (isolated rabbit hearts [2]; 1·10^-6 g/lt): 30.1 ± 4.62% | Contractile force, Mean ± S.E. (isolated rabbit hearts [2]; 5·10^-6 g/lt): 38.6 ± 7.12% | positive inotropic effect (isolated rabbit hearts [2]; equal concentrations in the perfusion fluid, Student's t test): greater positive inotropic effect than that induced by d,l-carnitine | Coronary flow, Mean ± S.E. (isolated rabbit hearts [3]; 1·10^-5 g/lt): 89.19 ± 6.75% | Coronary flow, Mean ± S.E. (isolated rabbit hearts [3]; 1·10^-6 g/lt): 73.12 ± 6.80% | Coronary flow, Mean ± S.E. (isolated rabbit hearts [3]; 5·10^-6 g/lt): 76.04 ± 8.96% | Mean percent variation versus controls: excitability (-%) (isolated rat atrium; 1·10^-4 g/lt): 63.60% | Mean percent variation versus controls: frequency max (-%) (isolated rat atrium; 1·10^-4 g/lt): 42.30% | Mean percent variation versus controls: refractory period (+%) (isolated rat atrium; 1·10^-4 g/lt): 27.10% | Mean percent variation versus controls: rheobase (+%) (isolated rat atrium; 1·10^-4 g/lt): 42.12% | Mean percent variation versus controls: excitability (-%) (isolated rat atrium; 1·10^-5 g/lt): 19.12% | Mean percent variation versus controls: frequency max (-%) (isolated rat atrium; 1·10^-5 g/lt): 23.20% | Mean percent variation versus controls: refractory period (+%) (isolated rat atrium; 1·10^-5 g/lt): 20.31% | Mean percent variation versus controls: rheobase (+%) (isolated rat atrium; 1·10^-5 g/lt): 25.35% | Mean percent variation versus controls: excitability (-%) (isolated rat atrium; 1·10^-6 g/lt): 12.07% | Mean percent variation versus controls: frequency max (-%) (isolated rat atrium; 1·10^-6 g/lt): 10.02% | Mean percent variation versus controls: refractory period (+%) (isolated rat atrium; 1·10^-6 g/lt): 16.32% | Mean percent variation versus controls: rheobase (+%) (isolated rat atrium; 1·10^-6 g/lt): 9.78% | antiarrhythmic effect (isolated rat atrium; isolated rat atrium): most clear cut antiarrhythmic properties | percentage of animals staying on the rota-rod more than 180 seconds (female rats; [5]): 0% | percentage of animals staying on the rota-rod more than 180 seconds (female rats; [6]): 0% | percentage of animals staying on the rota-rod more than 180 seconds (female rats; 300 mg/kg i.p., session 3 (every 15 minutes)): 0% | percentage of animals staying on the rota-rod more than 180 seconds (female rats; [7]): 0% | percentage of animals staying on the rota-rod more than 180 seconds (female rats; [8]): 10.0% | percentage of animals staying on the rota-rod more than 180 seconds (female rats; [9]): 20.0% | percentage of animals staying on the rota-rod more than 180 seconds (female rats; [10]): 0% | percentage of animals staying on the rota-rod more than 180 seconds (female rats; [11]): 0% | percentage of animals staying on the rota-rod more than 180 seconds (female rats; [12]): 10.0% | percentage of animals staying on the rota-rod more than 180 seconds (female rats; [13]): 20.0% | percentage of animals staying on the rota-rod more than 180 seconds (female rats; [14]): 20.0% | percentage of animals staying on the rota-rod more than 180 seconds (female rats; [15]): 30.0% | percentage of animals staying on the rota-rod more than 180 seconds (female rats; [16]): 0% | percentage of animals staying on the rota-rod more than 180 seconds (female rats; [17]): 0% | percentage of animals staying on the rota-rod more than 180 seconds (female rats; [18]): 10.0% | percentage of animals staying on the rota-rod more than 180 seconds (female rats; [19]): 20.0% | percentage of animals staying on the rota-rod more than 180 seconds (female rats; [20]): 30.0% | percentage of animals staying on the rota-rod more than 180 seconds (female rats; [21]): 40.0% | antagonism to adrenaline-induced toxicity ([4]; 250 mg/kg i.p. 30 minutes before adrenaline): antagonize adrenaline-induced toxicity to a greater degree than d,l-carnitine | LD50 (fiducial limits for 95%) of adrenaline after the compound ([4]; Adrenaline + compound, compound 250 mg/kg i.p. 30 minutes before adrenaline, mice, mortality 36 hours): 172.15 (110.02-219.48) mg/kg

CC(=O)CC(=O)OC(CC(=O)[O-])C[N+](C)(C)C (racemic) [acetoacetyl-d,l-carnitine]
LD50 (in vivo): ~728 mg/kg | tolerance (mice): better tolerance properties | Contractile force, Mean ± S.E. (isolated rabbit hearts [2]; 1·10^-5 g/lt): 58.3 ± 5.08% | Contractile force, Mean ± S.E. (isolated rabbit hearts [2]; 1·10^-6 g/lt): 30.1 ± 3.98% | Contractile force, Mean ± S.E. (isolated rabbit hearts [2]; 5·10^-6 g/lt): 38.2 ± 4.66% | Coronary flow, Mean ± S.E. (isolated rabbit hearts [3]; 1·10^-5 g/lt): 89.82 ± 6.38% | Coronary flow, Mean ± S.E. (isolated rabbit hearts [3]; 1·10^-6 g/lt): 74.65 ± 3.54% | Coronary flow, Mean ± S.E. (isolated rabbit hearts [3]; 5·10^-6 g/lt): 75.70 ± 10.1% | inhibition at 0.1 µg/mL (isolated rat atrium; 1·10^-4 g/lt, read-out: Mean percent variation versus controls: excitability (-%)): 40.1% | inhibition at 0.1 µg/mL (isolated rat atrium; 1·10^-4 g/lt, read-out: Mean percent variation versus controls: frequency max (-%)): 25.5% | activation at 0.1 µg/mL (isolated rat atrium; 1·10^-4 g/lt, read-out: Mean percent variation versus controls: refractory period (+%)): 22.8% | activation at 0.1 µg/mL (isolated rat atrium; 1·10^-4 g/lt, read-out: Mean percent variation versus controls: rheobase (+%)): 21.9% | inhibition at 0.01 µg/mL (isolated rat atrium; 1·10^-5 g/lt, read-out: Mean percent variation versus controls: excitability (-%)): 27.1% | inhibition at 0.01 µg/mL (isolated rat atrium; 1·10^-5 g/lt, read-out: Mean percent variation versus controls: frequency max (-%)): 22.7% | activation at 0.01 µg/mL (isolated rat atrium; 1·10^-5 g/lt, read-out: Mean percent variation versus controls: refractory period (+%)): 14.7% | activation at 0.01 µg/mL (isolated rat atrium; 1·10^-5 g/lt, read-out: Mean percent variation versus controls: rheobase (+%)): 9.94% | inhibition at 0.001 µg/mL (isolated rat atrium; 1·10^-6 g/lt, read-out: Mean percent variation versus controls: excitability (-%)): 12.2% | inhibition at 0.001 µg/mL (isolated rat atrium; 1·10^-6 g/lt, read-out: Mean percent variation versus controls: frequency max (-%)): 7.34% | activation at 0.001 µg/mL (isolated rat atrium; 1·10^-6 g/lt, read-out: Mean percent variation versus controls: refractory period (+%)): 10.7% | activation at 0.001 µg/mL (isolated rat atrium; 1·10^-6 g/lt, read-out: Mean percent variation versus controls: rheobase (+%)): 3.01% | responders at 300 mg/kg (female rats; [5]): 0% | responders at 300 mg/kg (female rats; [6]): 0% | responders at 300 mg/kg (female rats; [7]): 10% | responders at 300 mg/kg (female rats; [8]): 10% | responders at 300 mg/kg (female rats; [9]): 10% | responders at 400 mg/kg (female rats; [10]): 0% | responders at 400 mg/kg (female rats; [11]): 0% | responders at 400 mg/kg (female rats; [12]): 20% | responders at 400 mg/kg (female rats; [13]): 20% | responders at 400 mg/kg (female rats; [14]): 20% | responders at 400 mg/kg (female rats; [15]): 30% | responders at 600 mg/kg (female rats; [16]): 0% | responders at 600 mg/kg (female rats; [17]): 10% | responders at 600 mg/kg (female rats; [18]): 20% | responders at 600 mg/kg (female rats; [19]): 40% | responders at 600 mg/kg (female rats; [20]): 40% | responders at 600 mg/kg (female rats; [21]): 40%
